Assay results reported in patent publication US20250129091A1, “THIENOPYRROLOTRIAZINE COMPOUNDS, THEIR PREPARATION AND THEIR THERAPEUTIC USE” (Sanofi, priority 2022, published 2025).
Structures can show the parent of a compound that is named as a salt. Where two headings read alike, the source gives them in different places.

Experiments:
NLRP3 inflammasome = assay: IL-1β secretion assay (LPS-primed, nigericin-activated THP-1 cells, MSD readout); format: cell-based; conditions: read-out: IL1b IC50
Description: Monocytic THP-1 cells (DSMZ) were maintained in RPMI media (RPMI 1640 Medium (1×) +10% FBS, Eurobio CVFSVFOO—OU). Cells were then plated at 16,000 cells per well in 96-well round bottom cell culture plates (TPP, ref 92097) and maintained with RPMI and 0.1% Bovine Serum Albumin solution. Activation of the NLRP3 inflammasome requires both an NF-kB-dependent priming step and the addition of a NLRP3 activator. The priming step was induced by LPS (10 ng/mL, Sigma, ref:L4391) for 3 h at 37° C., then compound, in a 1:3.10 serial dilution series in DMSO 1:100, and the activator nigericin (Sigma Aldrich, ref: SML1779) 10 μM (final concentration) were added to the cells and co-incubated for 2 h. 50 μL supernatant was removed, and IL-1β levels were monitored using an MSD assay (Electro Chemical Luminescence Immunoassay (ECLI) according to manufacturers' instructions.
(§1) IC50 values were calculated from the plot of percentage of inhibition versus the inhibitor concentration by a logistics fit according to: y=A2+(A1−A2)/(1+(x/IC50)^p) where y is the %-inhibition at the inhibitor concentration, x. A1 is the lowest inhibition value, i.e., 0%, and A2 the maximum inhibition value, i.e., 100%. The exponent, p, is the Hill coefficient. The curve fitting was conducted with an internally developed software.

TNF-α secretion = TNF-α secretion assay (PMA-differentiated THP-1 cells, LPS-triggered, MSD readout); format: cell-based; conditions: LPS 24 h; for inhibition at 3 µM / inhibition at 10 µM: Homo sapiens
Description: Monocytic THP-1 cells (DSMZ) were maintained in RPMI media (RPMI 1640 Medium (1×) +10% FBS, biowest S181H). Cells were then differentiated at 160,000 cells per well in 96-well flat bottom cell culture plates with RPMI+0.1% Bovine Serum Albumin solution and 0.5 μM phorbol 12-myristate 13-acetate (PMA; Sigma, ref:P8139) overnight at 37° C. Experimental compounds were prepared and added as described above. TNF-α secretion was triggered by the addition of 0.5 μg/mL LPS (invivoGen, tlrl-3pelps) and cells were incubated for 24 h. 2.5 μL supernatant was removed, and TNF-α levels were monitored using an MSD assay (mesoscale, K15049) according to manufacturers' instructions.
as §1

[1] = Homo sapiens, THP-1, LPS-primed

SMILES | IC50 (NLRP3 inflammasome; [1]) [nM] | inhibition at 3 µM (TNF-α secretion; compound at 3 μM) [%] | inhibition at 10 µM (TNF-α secretion; compound at 10 μM) [%] | other results
O=C(Cn1nc(C2CC2)n2c(cc3cc(Cl)sc32)c1=O)N[C@@H]1CCCN(C2CC2)C1 [Example 13, (R)-2-(2-chloro-8-cyclopropyl-5-oxothieno[3′,2′:4,5]pyrrolo[1,2-d][1,2,4]triazin-6(5H)-yl)-N-(1-cyclopropylpiperidin-3-yl)acetamide] | 168 | 5.2 | 22.2 | 
CC(C)c1nn(CC(=O)Nc2cncs2)c(=O)c2cc3ccsc3n12 [Example 2, 2-(8-isopropyl-5-oxothieno[3′,2′:4,5]pyrrolo[1,2-d][1,2,4]triazin-6(5H)-yl)-N-(thiazol-5-yl) acetamide] |  |  |  | IC50 (NLRP3 inflammasome; LPS-primed): 577 nM; TNF-a inhibition @ 3 μM (TNF-α secretion; compound at 3 μM): 3.3; TNF-a inhibition @ 10 μM (TNF-α secretion; compound at 10 μM): −51.5
C[C@H](O)CN1CCC[C@@H](NC(=O)Cn2nc(C3CC3)n3c(cc4ccsc43)c2=O)C1 [Example 22, 2-(8-cyclopropyl-5-oxothieno[3′,2′:4,5]pyrrolo[1,2-d][1,2,4]triazin-6(5H)-yl)-N—((R)-1-((S)-2-hydroxypropyl)piperidin-3-yl)acetamide] | 400 | -2.9 | 14.5 | 
CC(C)c1nn(CC(=O)N[C@@H]2CCCN(CC(C)(C)O)C2)c(=O)c2cc3ccsc3n12 [Example 23, (R)—N-(1-(2-hydroxy-2-methylpropyl)piperidin-3-yl)-2-(8-isopropyl-5-oxothieno[3′,2′:4,5]pyrrolo[1,2-d][1,2,4]triazin-6(5H)-yl)acetamide formate] | 311 | 1.8 | 3.3 | 
CC(C)c1nn(CC(=O)N[C@@H]2CCCN(C)C2)c(=O)c2cc3cc(Br)sc3n12 [Example 8, (R)-2-(2-bromo-8-isopropyl-5-oxothieno[3′,2′:4,5]pyrrolo[1,2-d][1,2,4]triazin-6(5H)-yl)-N-(1-methylpiperidin-3-yl)acetamide] | 801 | -10 | -21.8 | 
C=O.CC(C)c1nn(CC(=O)N[C@@H]2CCCN(CCO)C2)c(=O)c2cc3ccsc3n12 [Example 19, (R)—N-(1-(2-hydroxyethyl)piperidin-3-yl)-2-(8-isopropyl-5-oxothieno [3′,2′:4,5]pyrrolo[1,2-d][1,2,4]triazin-6(5H)-yl)acetamide compound with formaldehyde] |  | 27.7 | -22.7 | IC50 (NLRP3 inflammasome; Homo sapiens, LPS-primed): 225 nM
CC(C)c1nn(CC(=O)N[C@@H]2CCCN(C)C2)c(=O)c2cc3ccsc3n12 [Example 1, (R)-2-(8-isopropyl-5-oxothieno[3′,2′:4,5]pyrrolo[1,2-d][1,2,4]triazin-6(5H)-yl)-N-(1-methylpiperidin-3-yl)acetamide] | 661 | -5.1 | -17.7 | 
CC(C)c1nn(CC(=O)N[C@@H]2CCCN(C3CCC3)C2)c(=O)c2cc3cc(Br)sc3n12 [Example 31, (R)-2-(2-bromo-8-isopropyl-5-oxothieno[3′,2′:4,5]pyrrolo[1,2-d][1,2,4]triazin-6(5H)-yl)-N-(1-cyclobutylpiperidin-3-yl)acetamide 2,2,2-trifluoroacetate] | 30 | 10.5 | 32.5 | 
CC(C)c1nn(CC(=O)NC2CN(C)CC(F)(F)C2)c(=O)c2cc3ccsc3n12 (centres unmarked) [Example 35, N-(5,5-difluoro-1-methylpiperidin-3-yl)-2-(8-isopropyl-5-oxothieno[3′,2′:4,5]pyrrolo[1,2-d][1,2,4]triazin-6(5H)-yl)acetamide] |  | 23 | 5.7 | 
CC(C)c1nn(CC(=O)N[C@@H]2CCCN(C[C@H](C)O)C2)c(=O)c2cc3ccsc3n12 [Example 3, N—((R)-1-((S)-2-hydroxypropyl)piperidin-3-yl)-2-(8-isopropyl-5-oxothieno[3′,2′:4,5]pyrrolo[1,2-d][1,2,4]triazin-6(5H)-yl)acetamide] | 335 | 3.1 | -8.2 | 
CC(C)c1nn(CC(=O)N[C@@H]2CCCN(CC3CC3)C2)c(=O)c2cc3ccsc3n12 [Example 28, (R)—N-(1-(cyclopropylmethyl)piperidin-3-yl)-2-(8-isopropyl-5-oxothieno[3′,2′:4,5]pyrrolo [1,2-d][1,2,4]triazin-6(5H)-yl)acetamide formate] | 775 | 34.4 | -45.5 | 
CC(C)CN1CCC[C@@H](NC(=O)Cn2nc(C(C)C)n3c(cc4ccsc43)c2=O)C1 [Example 14, (R)—N-(1-isobutylpiperidin-3-yl)-2-(8-isopropyl-5-oxothieno[3′,2′:4,5]pyrrolo[1,2-d][1,2,4]triazin-6(5H)-yl)acetamide] | 237 | -0.5 | -18.8 | 
CC(C)c1nn(CC(=O)N[C@@H]2CCCN(C)C2)c(=O)c2cc3cc(Cl)sc3n12 [Example 5, (R)-2-(2-chloro-8-isopropyl-5-oxothieno[3′,2′:4,5]pyrrolo[1,2-d][1,2,4]triazin-6(5H)-yl)-N-(1-methylpiperidin-3-yl)acetamide 2,2,2-trifluoroacetate] | 1230 | -18.2 | -14.1 | 
O=C(Cn1nc(C2CC2)n2c(cc3ccsc32)c1=O)N[C@@H]1CCCN(C2CCC2)C1 [Example 20, (R)—N-(1-cyclobutylpiperidin-3-yl)-2-(8-cyclopropyl-5-oxothieno[3′,2′:4,5]pyrrolo[1,2-d][1,2,4]triazin-6(5H)-yl)acetamide] | 185 | -6.1 | -26 | 
Cc1cc2cc3c(=O)n(CC(=O)N[C@@H]4CCCN(C)C4)nc(C(C)C)n3c2s1 [Example 9, (R)-2-(8-isopropyl-2-methyl-5-oxothieno[3′,2′:4,5]pyrrolo[1,2-d][1,2,4]triazin-6(5H)-yl)-N-(1-methylpiperidin-3-yl)acetamide 2,2,2-trifluoroacetate] | 9560 |  |  | 
CCc1nn(CC(=O)N[C@@H]2CCCN(C3CC3)C2)c(=O)c2cc3ccsc3n12 [Example 60, N-[(3R)-1-cyclopropyl-3-piperidyl]-2-(12-ethyl-9-oxo-3-thia-1,10,11-triazatricyclo [6.4.0.02,6]dodeca-2(6),4,7,11-tetraen-10-yl)acetamide] | 130 |  |  | 
CC(C)c1nn(CC(=O)Nc2cncnc2)c(=O)c2cc3ccsc3n12 [Example 84, 2-(8-isopropyl-5-oxothieno[3′,2′:4,5]pyrrolo[1,2-d][1,2,4]triazin-6(5H)-yl)-N-pyrimidin-5-ylacetamide] | 5950 |  |  | 
COCc1nn(CC(=O)N[C@@H]2CCCN(C3CCC3)C2)c(=O)c2cc3cc(Cl)sc3n12 [Example 29, (R)-2-(2-chloro-8-(methoxymethyl)-5-oxothieno[3′,2′:4,5]pyrrolo[1,2-d][1,2,4]triazin-6(5H)-yl)-N-(1-cyclobutylpiperidin-3-yl)acetamide formate] | 1140 |  |  | 
CC(C)c1nn(CC(=O)N[C@@H]2CCCN(c3nccn3C)C2)c(=O)c2cc3ccsc3n12 [Example 45, (R)-2-(8-isopropyl-5-oxothieno[3′,2′:4,5]pyrrolo[1,2-d][1,2,4]triazin-6(5H)-yl)-N-(1-(1-methyl-1H-imidazol-2-yl)piperidin-3-yl)acetamide] | 1530 |  |  | 
CC(C)c1nn(C(C)C(=O)N[C@@H]2CCCN(C3CC3)C2)c(=O)c2cc3ccsc3n12 (stereo partly drawn) [Example 26, N—((R)-1-cyclopropylpiperidin-3-yl)-2-(8-isopropyl-5-oxothieno[3′,2′:4,5]pyrrolo[1,2-d][1,2,4]triazin-6(5H)-yl)propanamide formate] | 1990 |  |  | 
CC(C)c1nn(CC(=O)NC2C[C@@H]3C[C@H]2N(C)C3)c(=O)c2cc3ccsc3n12 (stereo in doubt) [Example 82, N-[(1R,4R)-2-methyl-2-azabicyclo[2.2.1]heptan-6-yl]-2-(8-isopropyl-5-oxothieno [3′,2′:4,5]pyrrolo[1,2-d][1,2,4]triazin-6(5H)-yl)acetamide] | 4500 |  |  | 
CC(C)c1nn(CC(=O)NC2CN(C)CC(F)(F)C2)c(=O)c2cc3cc(Cl)sc3n12 (centres unmarked) [Example 34, 2-(2-chloro-8-isopropyl-5-oxothieno[3′,2′:4,5]pyrrolo[1,2-d][1,2,4]triazin-6(5H)-yl)-N-(5,5-difluoro-1-methylpiperidin-3-yl)acetamide 2,2,2-trifluoroacetate] | 6160 |  |  | 
CC(C)(O)c1nn(CC(=O)N[C@@H]2CCCN(C3CC3)C2)c(=O)c2cc3ccsc3n12 [Example 52, (R)—N-(1-cyclopropylpiperidin-3-yl)-2-(8-(2-hydroxypropan-2-yl)-5-oxothieno[3′,2′:4,5]pyrrolo[1,2-d][1,2,4]triazin-6(5H)-yl)acetamide] | 82 |  |  | 
